From patent publication US12331019B2, “Modified amino acid derivatives for the treatment of neurological diseases and selected psychiatric disorders” (Uniwersytet Jagiellonski, priority 2019, dated 2025)

How the values were obtained:
Swiss albino mice (CD-1) [1] = settings: i.p., CD-1 mice, 30 min; racemates, disclosed in publications; cited from earlier work
Swiss albino mice (CD-1) [2] = settings: i.p., CD-1 mice, 30 min; racemates, disclosed in publications; cited from earlier work; remark: listed apart in the source
HaCaT cells = experiment: cytotoxic activity, MTT assay; format: cell-based; settings: Homo sapiens, 72 hours incubation, mean ± SD
Source text: MTT assay. […] The IC50 value was estimated using CompuSyn version 1.0.

mice [3] = experiment: oxaliplatin-induced neuropathic pain model, von Frey test; format: in vivo, mouse
Method: (§1) The study was conducted on male Swiss albino mice (CD-1) weighing 18-26 g. All procedures were carried out in accordance with applicable Polish and international guidelines on the ethics of animal testing, after obtaining appropriate institutional approval. […] These studies were carried out on individuals of male C57 black mice (Charles River) and individuals of male Sprague-Dawley rats. All tests were carried out based on the procedures described in the specialist literature. […] The study group consisted of 8-10 animals. […] To perform a statistical evaluation of the results, one-way analysis of variance (ANOVA) followed by Dunnett's post hoc test (multiple comparison test) were used. The values were considered statistically significant if p<0.05.

in vivo = settings: male, C57 black, mouse, ip
Method: (§2) The study was conducted on male Swiss albino mice (CD-1) weighing 18-26 g. All procedures were carried out in accordance with applicable Polish and international guidelines on the ethics of animal testing, after obtaining appropriate institutional approval. […] These studies were carried out on individuals of male C57 black mice (Charles River) and individuals of male Sprague-Dawley rats. All tests were carried out based on the procedures described in the specialist literature.
(§3) These studies were also carried out in rats according to the methodology described by ETSP. The toxic dose (TD50) in the rotarod test was estimated based on the results obtained in 3-4 groups of animals consisting of at least 6 individuals.
(§4) To perform a statistical evaluation of the results, one-way analysis of variance (ANOVA) followed by Dunnett's post hoc test (multiple comparison test) were used. The values were considered statistically significant if p<0.05.

CYP3A4 = target: T1, CYP3A4 (Homo sapiens, UniProt P08684); experiment: CYP3A4 P450-Glo luminescence test; format: in vitro ADME; settings: 10 μM
T1 construct: purchased Promega (Madison, WI, USA)
Method: (§5) The studies were conducted using commercial luminescence tests CYP3A4 P450-Glo™, CYP2D6 P450-Glo™ and CYP2C9 P450-Glo™ from Promega (Madison, WI, USA).
(§6) The studies were conducted using commercial luminescence tests CYP3A4 P450-Glo™, CYP2D6 P450-Glo™ and CYP2C9 P450-Glo™ from Promega (Madison, WI, USA). The CYP isoforms selected for study are responsible for the metabolism of approximately 60-70% of the drugs available and their stimulation or inhibition determines the majority of metabolic drug interactions.

mice [4] = experiment: spontaneous locomotor activity test; format: in vivo, mouse
Method: The assessment of the influence of the tested compounds on the spontaneous locomotor activity of animals (assessment of the sedative or activating effect) was carried out in accordance with the methodology described in the scientific literature (Mogilski et al. Inflamm. Res. 2017, 66, 79-95). The study group consisted of 10 animals.

HEK-293 cell line = experiment: cytotoxic activity, MTS test; settings: 72 hours incubation, concentration range 1-100 μM
mice [5] = experiment: forced swim test (Porsolt test); format: in vivo, mouse; settings: 30, 45 and 60 mg/kg i.p.; vs vehicle control
Method: as §1

mice [6] = experiment: four plates test (Aron test); format: in vivo, mouse; settings: vs vehicle control
Method: as §1

Sprague-Dawley rats [7] = experiment: MES test in rats, ETSP; format: in vivo; settings: Rattus norvegicus, ip, 0.5 h, i.p., tested 30 min after administration, 95% confidence limits in brackets
Method: as §2
(§7) Screening was performed on groups of 4-8 mice or 4-8 rats. The median effective dose (ED50) in a given test was estimated based on the results obtained in 3-4 groups of animals consisting of at least 6 individuals.
as §4

[8] = system: neurons derived from human neuroblastoma SH-SY5Y cells; experiment: neurotrophic activity on human neurons, MTT test; settings: 48 hours; for viability of human neurons under standard conditions: 0.1 to 100 μg/ml; for concentrations from which the compound acted trophically (eliminating the effect of lack of B27 supplement): trophic stress (B27 removed)
human liver microsomes = experiment: metabolic stability in human liver microsomes; format: in vitro ADME; settings: 120 minutes incubation, NADPH cofactor
Method: The metabolic stability study was performed using human liver microsomes purchased from Sigma-Aldrich (St. Louis, MO, USA).

[9] = system: black C57 mice (Charles River); experiment: corneal kindled seizure model, ETSP; format: in vivo; settings: Mus musculus, ip, 1 h, i.p., tested 60 min after administration
Method: as §2, §7, §4

[10] = system: black C57 mice (Charles River); experiment: 6 Hz (44 mA) test, ETSP; format: in vivo; settings: Mus musculus, ip, 1 h, i.p., tested 60 min after administration
Method: as §2, §7, §4

CYP2C9 = CYP2C9 (Homo sapiens, UniProt P11712); settings: 10 μM
Method: as §5, §6

mice [11] = experiment: neuroprotection in pilocarpine-induced status epilepticus (Fluoro-Jade B); settings: PILO 300 mg/kg i.p.; dose of compound determined in the 6 Hz (32 mA) test; five mice shown (B-F)
Sprague-Dawley rats [12] = experiment: lamotrigine resistant amygdala kindled seizure model; format: in vivo, rat; settings: 70 mg/kg i.p., 30 min, 5 rats tested
Method: as §2, §7

mice [13] = experiment: formalin test; format: in vivo, mouse; settings: vs vehicle control
Method: as §1

CYP2D6 = target: T2, CYP2D6 (Homo sapiens, UniProt P10635); experiment: CYP2D6 P450-Glo luminescence test; format: in vitro ADME; settings: 10 μM
T2 construct: purchased Promega (Madison, WI, USA)
Method: as §5, §6

mice [14] = experiment: streptozotocin-induced model of painful diabetic neuropathy, von Frey test; format: in vivo, mouse; settings: 3 weeks after streptozotocin
Method: as §1

HepG2 cell line = experiment: hepatotoxicity, MTS test; settings: 72 hours incubation, concentration range 1-100 μM
Swiss albino mice (CD-1) [15] = experiment: 6 Hz (44 mA) psychomotor seizure test; format: in vivo; settings: Mus musculus, ip, 0.5 h; i.p., CD-1 mice, tested 30 min after administration
[16] = rotarod test (motor coordination); settings: male, Swiss albino (CD-1), mouse, in vivo, ip
Method: as §2, §3, §4

patients = settings: monotherapy; cited from earlier work

## CC(C(=O)NCc1ccccc1)N1C(=O)CCC1=O (racemic) [(RS)-1, (2RS)—N-benzyl-2-(2,5-dioxopyrrolidin-1-yl)propenamide]
Swiss albino mice (CD-1) [1]
  ED50 6 Hz (44 mA): 75.41 mg/kg

## CC(C(=O)NCc1ccccc1F)N1C(=O)CCC1=O (racemic) [(RS)-2, (2RS)-2-(2,5-dioxopyrrolidin-1-yl)-N-(2-fluorobenzyl)propanamide]
Swiss albino mice (CD-1) [2]
  TD50 Rotarod test: 300.9 mg/kg

## C[C@H](C(=O)NCc1ccccc1)N1C(=O)CCC1=O [Compound 1, (2R)—N-benzyl-2-(2,5-dioxopyrrolidin-1-yl)propanamide]
HaCaT cells
  IC50: 239.8 ± 0.6 µM
Mice [3]; 30 mg/kg i.p.
  pain threshold (mechanical stimulus): increased the pain threshold only in the early phase
Mice [3]; 60 mg/kg and 90 mg/kg i.p., early (3 h) and late (7 days) phase, vs measurement before compound
  pain threshold (mechanical stimulus): led to an increase in pain threshold at a dose-dependent manner
In vivo
  TD50 at 60 min: > 150 mg/kg
CYP3A4
  effect on CYP3A4 activity: no effect
Mice [4]; 30, 60 and 90 mg/kg i.p.
  number of light beams interruptions during 30 minutes (spontaneous locomotor activity): statistically significantly increased the number of light beams interruptions
HEK-293 cell line
  effect on cell viability: did not show a statistically significant effect
Mice [5]
  immobility time: statistically significantly shortened the immobility time
Mice [6]; 30 mg/kg i.p.
  number of electrically punished plate crossings: did not result in a statistically significant difference
Mice [6]; 60 mg/kg and 90 mg/kg i.p.
  number of electrically punished plate crossings: statistically significantly increased the number of electrically punished plate crossings
Sprague-Dawley rats [7]
  ED50: 34.9 mg/kg
[8]
  viability of human neurons under standard conditions: did not affect the viability
  concentrations from which the compound acted trophically (eliminating the effect of lack of B27 supplement): ≥ 1 µg/mL
Human liver microsomes
  metabolites on UPLC chromatogram of reaction mixture: no metabolites appeared
[9]
  ED50: 38.1 mg/kg
[10]
  ED50: 69.9 mg/kg
CYP2C9
  effect on CYP2C9 activity: small, statistically significant (p<0.05) inhibition
Mice [11]
  neuroprotective effect after PILO-induced SE (neurodegenerative changes): a protective effect was obtained for four mice
Sprague-Dawley rats [12]
  Number of protected rats: Number of protected rats: 3
  protection: (protection—60%)
Mice [13]; i.p., 30, 60 and 90 mg/kg
  nociceptive response time, second phase (tonic inflammatory pain): statistically significantly shortened the time of nociceptive response
Mice [13]; i.p., all doses, statistically significant at 60 and 90 mg/kg
  nociceptive response time, first phase (acute pain): reduced the nociceptive response time
CYP2D6
  effect on CYP2D6 activity: no effect
Mice [14]; 90 mg/kg i.p.
  pain threshold (mechanical stimulus): increased the pain threshold to the values observed before the induction of streptozotocin diabetes
Mice [14]; 30, 60 and 90 mg/kg i.p., vs measurement before compound
  pain threshold (mechanical stimulus): led to an increase in the pain threshold in a statistically significant and dose-dependent manner
HepG2 cell line
  effect on cell viability: did not show a statistically significant effect

## C[C@H](C(=O)NCc1ccccc1F)N1C(=O)CCC1=O [Compound 2, (2R)-2-(2,5-dioxopyrrolidin-1-yl)-N-(2-fluorobenzyl)propanamide]
Mice [4]; 90 mg/kg i.p.
  spontaneous locomotor activity: statistically significant increase in spontaneous locomotor activity
Swiss albino mice (CD-1) [15]
  ED50: 37.2 mg/kg
[8]
  viability of human neurons under standard conditions: did not affect the viability
  concentrations from which the compound acted trophically (eliminating the effect of lack of B27 supplement): ≥ 0.1 µg/mL
[16]
  TD50 at 30 min: 299 mg/kg

## COc1cccc2c1C(=O)c1c(O)c3c(c(O)c1C2=O)C[C@@](O)(C(=O)CO)C[C@@H]3O[C@H]1C[C@H](N)[C@H](O)[C@H](C)O1 [Doxorubicin, reference compound]
HaCaT cells
  IC50: 0.23 ± 0.03 µM

## NCC1(CC(=O)O)CCCCC1 [gabapentin]
patients
  sedative effect, share of patients: approx. 9 % of patients

## Nc1nnc(-c2cccc(Cl)c2Cl)c(N)n1 [lamotrigine]
patients
  sedative effect, share of patients: approx. 10 % of patients

## CC[C@@H](C(N)=O)N1CCCC1=O [levetiracetam]
patients
  sedative effect, share of patients: approx. 20 % of patients

## CCC1(c2ccccc2)C(=O)NC(=O)NC1=O [phenobarbital]
patients
  sedative effect, share of patients: approx. 39 % of patients

## O=C1NC(=O)C(c2ccccc2)(c2ccccc2)N1 [phenytoin]
patients
  sedative effect, share of patients: approx. 32 % of patients
